Article PMC10583239 (CPT: Pharmacometrics & Systems Pharmacology, 2023)
In brackets after ≈: the same amount, converted by molar mass. Marks after values point to notes of the source that are not given here.

What was measured:
CYP2C9 [1] = biological target: T1, CYP2C9 (Homo sapiens, UniProt P11712); details: main text summary
CYP2C19 [2] = biological target: T2, CYP2C19 (Homo sapiens, UniProt P33261); assay: Metabolic stability in recombinant human CYP2C19 with NADPH; type: in vitro ADME; details: CYP2C19 share of CYP metabolism, scaled by abundance and ISEF
CYP2C19 [3] = biological target: T2, CYP2C19; assay: biochemical
[4] = test system: human colon adenocarcinoma clone 2 (Caco‐2); assay: Caco‐2 apparent permeability; type: in vitro ADME; details: Caco‐2 cell line
CYP2C8 = biological target: T3, CYP2C8 (Homo sapiens, UniProt P10632); assay: CYP2C8 inhibition in human liver microsomes; type: in vitro ADME
T3 sequence (P10632 1-490): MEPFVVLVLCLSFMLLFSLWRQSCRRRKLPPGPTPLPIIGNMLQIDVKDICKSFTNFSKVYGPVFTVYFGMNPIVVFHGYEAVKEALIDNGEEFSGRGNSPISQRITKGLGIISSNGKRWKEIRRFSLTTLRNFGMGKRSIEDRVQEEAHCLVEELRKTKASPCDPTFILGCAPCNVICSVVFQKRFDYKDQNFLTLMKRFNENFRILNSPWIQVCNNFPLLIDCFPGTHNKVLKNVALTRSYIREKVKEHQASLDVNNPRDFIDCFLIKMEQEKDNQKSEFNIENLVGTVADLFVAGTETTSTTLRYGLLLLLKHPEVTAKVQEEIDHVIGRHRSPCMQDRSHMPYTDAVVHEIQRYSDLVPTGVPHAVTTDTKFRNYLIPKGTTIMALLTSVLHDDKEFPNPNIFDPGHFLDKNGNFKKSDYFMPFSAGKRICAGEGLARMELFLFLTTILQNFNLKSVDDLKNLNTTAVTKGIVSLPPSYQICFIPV

CYP2D6 [5] = biological target: T4, CYP2D6 (Homo sapiens, UniProt P10635); assay: Metabolic stability in recombinant human CYP2D6 with NADPH; type: in vitro ADME; details: CYP2D6 share of CYP metabolism, scaled by abundance and ISEF
CYP2B6 = biological target: T5, CYP2B6 (Homo sapiens, UniProt P20813); assay: Metabolic stability in recombinant human CYP2B6 with NADPH; type: in vitro ADME; details: CYP2B6 share of CYP metabolism, scaled by abundance and ISEF
T5 sequence (P20813 1-491): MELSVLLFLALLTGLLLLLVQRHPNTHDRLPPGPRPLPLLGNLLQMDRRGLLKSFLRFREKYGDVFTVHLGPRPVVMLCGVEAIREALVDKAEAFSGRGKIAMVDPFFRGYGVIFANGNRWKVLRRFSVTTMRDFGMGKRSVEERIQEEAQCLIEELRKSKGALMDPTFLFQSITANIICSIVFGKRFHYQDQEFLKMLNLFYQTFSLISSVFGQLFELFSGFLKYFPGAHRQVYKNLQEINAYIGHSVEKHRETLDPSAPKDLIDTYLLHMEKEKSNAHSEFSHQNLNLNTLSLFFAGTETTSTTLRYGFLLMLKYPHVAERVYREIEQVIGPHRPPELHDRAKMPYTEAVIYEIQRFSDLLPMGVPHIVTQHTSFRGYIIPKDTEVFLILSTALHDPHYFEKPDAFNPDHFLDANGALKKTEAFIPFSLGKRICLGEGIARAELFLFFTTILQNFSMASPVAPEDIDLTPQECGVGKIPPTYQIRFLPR

CYP2C9 [6] = biological target: T1, CYP2C9; assay: biochemical
Aqueous phase solubility = type: physicochemical; details: pH 6.71, aqueous buffer
CYP2D6 [7] = biological target: T4, CYP2D6; assay: CYP2D6 inhibition in human liver microsomes; type: in vitro ADME
[8] = Clinical DDI cohorts: pomotrelvir with ritonavir 100 mg
[9] = Human liver microsomal protein binding; type: in vitro ADME; details: human liver microsomes
recombinant human CYP2A6 = biological target: T6, recombinant human CYP2A6 (Homo sapiens, UniProt P11509); assay: Metabolic stability in recombinant human CYP2A6 with NADPH; type: in vitro ADME; details: CYP2A6 share of CYP metabolism, scaled by abundance and ISEF
T6 sequence (P11509 1-494): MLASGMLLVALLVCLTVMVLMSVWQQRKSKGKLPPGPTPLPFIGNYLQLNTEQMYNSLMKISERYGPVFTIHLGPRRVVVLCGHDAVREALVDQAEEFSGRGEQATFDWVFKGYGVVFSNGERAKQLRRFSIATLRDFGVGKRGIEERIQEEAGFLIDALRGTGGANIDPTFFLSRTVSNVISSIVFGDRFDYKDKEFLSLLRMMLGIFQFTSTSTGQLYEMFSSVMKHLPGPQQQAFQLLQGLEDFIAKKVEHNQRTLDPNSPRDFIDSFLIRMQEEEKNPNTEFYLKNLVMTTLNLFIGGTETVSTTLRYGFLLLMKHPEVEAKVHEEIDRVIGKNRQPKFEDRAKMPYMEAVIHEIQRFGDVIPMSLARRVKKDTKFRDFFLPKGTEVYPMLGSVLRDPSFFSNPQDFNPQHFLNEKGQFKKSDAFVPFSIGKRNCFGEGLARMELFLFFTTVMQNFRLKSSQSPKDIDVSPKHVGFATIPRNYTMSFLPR

[10] = (20 mg PBI + 100 mg RTV, SD)/(100 mg POMO, SD)
[11] = (50 mg PBI + 100 mg RTV, Day1)/(100 mg POMO, SD)
[12] = (50 mg PBI + 100 mg RTV, Day5)/(100 mg POMO, SD), AUClast/Dose over AUCinf/Dose
[13] = (50 mg PBI + 100 mg RTV, Day10)/(100 mg POMO, SD), AUClast/Dose over AUCinf/Dose

T4 sequence (P10635 whole entry): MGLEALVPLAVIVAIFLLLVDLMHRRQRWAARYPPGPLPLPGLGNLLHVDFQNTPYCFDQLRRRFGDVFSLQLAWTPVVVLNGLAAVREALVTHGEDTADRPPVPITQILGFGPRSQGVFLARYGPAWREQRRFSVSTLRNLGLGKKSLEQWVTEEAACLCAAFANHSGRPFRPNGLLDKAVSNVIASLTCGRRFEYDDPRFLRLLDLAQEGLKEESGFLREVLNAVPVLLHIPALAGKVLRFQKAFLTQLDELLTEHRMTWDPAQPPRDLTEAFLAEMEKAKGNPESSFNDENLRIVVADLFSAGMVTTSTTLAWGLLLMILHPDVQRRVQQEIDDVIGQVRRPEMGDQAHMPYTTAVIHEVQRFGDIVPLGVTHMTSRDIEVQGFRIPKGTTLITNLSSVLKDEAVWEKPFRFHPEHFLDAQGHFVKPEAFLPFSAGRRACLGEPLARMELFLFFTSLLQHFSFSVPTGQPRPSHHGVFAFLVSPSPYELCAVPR
T2 sequence (P33261 whole entry): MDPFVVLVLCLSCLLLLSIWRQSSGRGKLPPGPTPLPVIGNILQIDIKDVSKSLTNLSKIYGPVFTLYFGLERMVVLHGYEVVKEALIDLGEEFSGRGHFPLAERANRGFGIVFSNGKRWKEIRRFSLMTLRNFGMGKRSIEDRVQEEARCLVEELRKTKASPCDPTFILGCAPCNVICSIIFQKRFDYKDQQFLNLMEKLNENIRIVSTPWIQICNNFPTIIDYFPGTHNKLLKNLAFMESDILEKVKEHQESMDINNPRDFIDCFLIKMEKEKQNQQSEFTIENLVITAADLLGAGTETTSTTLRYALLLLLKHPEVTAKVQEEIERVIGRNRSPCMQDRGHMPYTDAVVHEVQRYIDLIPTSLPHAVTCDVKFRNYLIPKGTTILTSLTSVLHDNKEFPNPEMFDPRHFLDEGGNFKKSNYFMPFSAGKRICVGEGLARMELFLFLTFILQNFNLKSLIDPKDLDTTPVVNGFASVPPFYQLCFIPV
T1 sequence (P11712 whole entry): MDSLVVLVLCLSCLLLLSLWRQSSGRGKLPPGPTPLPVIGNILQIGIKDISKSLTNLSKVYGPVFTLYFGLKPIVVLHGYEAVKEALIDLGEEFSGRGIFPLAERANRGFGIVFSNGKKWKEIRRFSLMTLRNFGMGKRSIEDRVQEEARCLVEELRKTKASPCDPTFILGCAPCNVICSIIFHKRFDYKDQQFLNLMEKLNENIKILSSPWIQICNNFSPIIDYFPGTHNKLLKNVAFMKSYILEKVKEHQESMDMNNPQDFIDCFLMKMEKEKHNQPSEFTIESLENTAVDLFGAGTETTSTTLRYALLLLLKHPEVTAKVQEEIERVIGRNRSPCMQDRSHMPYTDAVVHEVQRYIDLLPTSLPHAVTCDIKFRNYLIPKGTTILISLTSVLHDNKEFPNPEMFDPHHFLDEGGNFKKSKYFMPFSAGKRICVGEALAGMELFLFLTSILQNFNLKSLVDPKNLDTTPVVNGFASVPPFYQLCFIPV

N#C[C@H](C[C@@H]1CCCNC1=O)NC(=O)[C@H](CC1CC1)NC(=O)c1cc2cccc(Cl)c2[nH]1 [Pomotrelvir, pomotrelvir]
inhibitory effect on CYP2C9 in vitro (in words) (CYP2C9 [1]): weak to moderate inhibition | Relative Contribution (fm) (CYP2C19 [2]): negligible | Ki (CYP2C19 [3]): 27.3 µM | efflux ratio [4]: large | Ki (CYP2C8): 1.93 µM | inhibitory effect on CYP2C8 in vitro (in words) (CYP2C8; main text summary): weak to moderate inhibition | Relative Contribution (fm) (CYP2D6 [5]): negligible | Relative Contribution (fm) (CYP2B6): negligible | Ki (CYP2C9 [6]): 12.3 µM | solubility (Aqueous phase solubility): 10 µg/mL (≈ 21.9 µM) | Ki (CYP2D6 [7]): 25.4 µM | inhibitory effect on CYP2D6 in vitro (in words) (CYP2D6 [7]; main text summary): No inhibitory effect | change of dose‐normalized systemic exposure in the presence of ritonavir ([8]; 100 mg ritonavir, all cohorts and parameters): 0.92–1.54 fold | AUCinf/dose GMR (90% CI) [8, 10]: 0.92 (0.67, 1.26) | AUClast/dose GMR (90% CI) [8, 10]: 1.06 (0.68, 1.65) | Cmax/dose GMR (90% CI) [8, 10]: 0.97 (0.76, 1.22) | AUCinf/dose GMR (90% CI) [8, 11]: 1.54 (1.13, 2.1) | AUClast/dose GMR (90% CI) [8, 11]: 1.38 (1.08, 1.76) | Cmax/dose GMR (90% CI) [8, 11]: 1.46 (1.16, 1.84) | Cmax/dose GMR (90% CI) ([8]; (50 mg PBI + 100 mg RTV, Day5)/(100 mg POMO, SD)): 1.3 (0.9, 1.89) | AUCinf/dose GMR (90% CI) [8, 12]: 1.34 (0.96, 1.87) ^a | AUClast/dose GMR (90% CI) [8, 12]: 1.34 (0.96, 1.87) ^a | Cmax/dose GMR (90% CI) ([8]; (50 mg PBI + 100 mg RTV, Day10)/(100 mg POMO, SD)): 1.41 (1.05, 1.91) | AUCinf/dose GMR (90% CI) [8, 13]: 1.37 (1.05, 1.79) ^b | AUClast/dose GMR (90% CI) [8, 13]: 1.37 (1.05, 1.79) ^b | increase in exposure upon coadministration with ritonavir ([8]; single or multiple doses): < 50% | fraction unbound [9]: 0.85 | Relative Contribution (fm) (recombinant human CYP2A6): negligible
